pIC50: −log10 of the molar value. Peptide text beside a SMILES is read from it.
How the values were obtained:
HDAC2 = target: T1, HDAC2 (Homo sapiens, UniProt Q92769); assay: HDAC2 inhibition, full IC50 measurement (Reaction Biology; fluorogenic p53 peptide RHKK(Ac)AMC); assay type: biochemical
T1 construct: purchased Reaction Biology Corporation (assay run by the CRO)
Method in brief: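 The reaction was a 1 h, 30 °C incubation of enzyme, acoustically added peptide and 50 μM p53-derived AMC substrate in pH 8.0 Tris buffer with NaCl, KCl, MgCl2, 1 mg/ml BSA and 1% DMSO. Duplicate values were averaged.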

HDAC1 = target: T2, HDAC1 (Homo sapiens, UniProt Q13547); assay: HDAC1 inhibition, full IC50 measurement (Reaction Biology; fluorogenic p53 peptide RHKK(Ac)AMC); assay type: biochemical; conditions: t1/t2 replicates
T2 construct: purchased Reaction Biology Corporation (assay run by the CRO)
Protocol: The assay was performed using 50 μM fluorogenic peptide from p53 residues 379-382 [RHKK(Ac)AMC] in a base reaction buffer of 50 mM Tris-HCl at pH 8.0, 137 mM NaCl, 2.7 mM KCl, 1 mM MgCl2, and freshly added 1 mg/ml BSA and 1% DMSO. Peptides were first dissolved in DMSO and then added to the reaction mixture with the enzyme using acoustic technique, enough to reach the desired concentration for that assay point. Peptide concentrations were calculated based on mass of lyophilized peptide and its molecular weight. The substrate was then added and incubated for 1 hour at 30 °C in a sealed container. After the incubation, developer was added to stop the reaction and develop color. Kinetic measurements were then performed for 20 min with Envision with 5 min intervals (Ex/Em = 360/460 nm). The endpoint after plateau was taken for IC50 measurement.
In cases where duplicate measures are used, average data is reported in the main text or Supplementary Tables.

T1 sequence (Q92769 whole entry): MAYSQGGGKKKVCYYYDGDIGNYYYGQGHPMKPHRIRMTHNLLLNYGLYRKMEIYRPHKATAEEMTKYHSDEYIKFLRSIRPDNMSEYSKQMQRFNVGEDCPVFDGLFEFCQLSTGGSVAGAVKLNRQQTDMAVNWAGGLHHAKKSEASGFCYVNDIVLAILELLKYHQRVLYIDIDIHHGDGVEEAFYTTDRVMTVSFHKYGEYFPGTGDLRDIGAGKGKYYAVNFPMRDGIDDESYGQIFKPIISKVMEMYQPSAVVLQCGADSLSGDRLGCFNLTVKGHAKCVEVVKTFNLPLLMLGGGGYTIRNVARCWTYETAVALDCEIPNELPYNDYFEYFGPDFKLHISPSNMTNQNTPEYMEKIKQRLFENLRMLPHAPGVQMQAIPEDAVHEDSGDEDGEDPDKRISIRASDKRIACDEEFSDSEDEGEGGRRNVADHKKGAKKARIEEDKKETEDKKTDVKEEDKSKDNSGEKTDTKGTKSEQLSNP
T2 sequence (Q13547 whole entry): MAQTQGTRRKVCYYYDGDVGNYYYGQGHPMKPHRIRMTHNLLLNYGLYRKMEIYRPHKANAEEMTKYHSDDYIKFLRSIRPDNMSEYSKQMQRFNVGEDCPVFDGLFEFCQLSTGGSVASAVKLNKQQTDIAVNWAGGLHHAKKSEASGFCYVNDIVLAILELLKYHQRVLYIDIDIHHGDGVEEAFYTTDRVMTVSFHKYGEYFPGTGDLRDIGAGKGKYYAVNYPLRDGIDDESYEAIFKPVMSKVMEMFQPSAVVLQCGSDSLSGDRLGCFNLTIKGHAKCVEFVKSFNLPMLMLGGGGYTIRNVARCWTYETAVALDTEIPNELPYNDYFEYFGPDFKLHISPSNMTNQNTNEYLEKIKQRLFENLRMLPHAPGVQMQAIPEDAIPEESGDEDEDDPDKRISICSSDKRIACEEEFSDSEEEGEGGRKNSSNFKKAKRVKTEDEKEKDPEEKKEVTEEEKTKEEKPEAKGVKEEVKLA

Structure (SMILES): C[C@H](O)[C@H]1NC(=O)[C@H](Cc2c[nH]c3ccccc23)NC(=O)[C@H](CCCCCS)NC(=O)[C@H](CCCCN)NC(=O)[C@@H](CC(=O)O)NC(=O)[C@@H](CCCCN)NC(=O)[C@@H](CO)NC(=O)[C@H](CC(N)=O)NC(=O)[C@H](CC(=O)O)NC1=O [des2.1.0, SHA-Trp-dThr-Asp-Asn-dSer-dLys-dAsp-Lys] (HELM PEPTIDE1{D.N.[dS].[dK].[dD].K.[O=C([C@H](CCCCCS)N[*:1])[*:2]].W.[dT]}$PEPTIDE1,PEPTIDE1,1:R1-9:R2$$$V2.0)
- HDAC2 activity raw data (signal) (HDAC2; Conc. 1.00E-05 M, t1): 8775
- HDAC2 activity raw data (signal) (HDAC2; Conc. 1.00E-05 M, t2): 5752
- HDAC2 activity raw data (signal) (HDAC2; Conc. 1.11E-06 M, t1): 59204
- HDAC2 activity raw data (signal) (HDAC2; Conc. 1.11E-06 M, t2): 55653
- HDAC2 activity raw data (signal) (HDAC2; Conc. 1.23E-07 M, t1): 287500
- HDAC2 activity raw data (signal) (HDAC2; Conc. 1.23E-07 M, t2): 296559
- HDAC2 activity raw data (signal) (HDAC2; Conc. 1.37E-08 M, t1): 771007
- HDAC2 activity raw data (signal) (HDAC2; Conc. 1.37E-08 M, t2): 731853
- HDAC2 activity raw data (signal) (HDAC2; Conc. 1.52E-09 M, t1): 900838
- HDAC2 activity raw data (signal) (HDAC2; Conc. 1.52E-09 M, t2): 951179
- HDAC2 activity raw data (signal) (HDAC2; Conc. 3.33E-06 M, t1): 26370
- HDAC2 activity raw data (signal) (HDAC2; Conc. 3.33E-06 M, t2): 19470
- HDAC2 activity raw data (signal) (HDAC2; Conc. 3.70E-07 M, t1): 153888
- HDAC2 activity raw data (signal) (HDAC2; Conc. 3.70E-07 M, t2): 158440
- HDAC2 activity raw data (signal) (HDAC2; Conc. 4.12E-08 M, t1): 557731
- HDAC2 activity raw data (signal) (HDAC2; Conc. 4.12E-08 M, t2): 531503
- HDAC2 activity raw data (signal) (HDAC2; Conc. 4.57E-09 M, t1): 870100
- HDAC2 activity raw data (signal) (HDAC2; Conc. 4.57E-09 M, t2): 861014
- HDAC2 activity raw data (signal) (HDAC2; Conc. 5.08E-10 M, t1): 1022928
- HDAC2 activity raw data (signal) (HDAC2; Conc. 5.08E-10 M, t2): 990162
- pIC50 (HDAC2; figure legends, Supp. Table 1, read-out: HDAC2 IC50): 7.31
- HDAC1 activity raw data (signal) (HDAC1; peptide conc. 1.00E-05 M, listed as des2.1.0_t1): 2361
- HDAC1 activity raw data (signal) (HDAC1; peptide conc. 1.00E-05 M, listed as des2.1.0_t2): -1067
- HDAC1 activity raw data (signal) (HDAC1; peptide conc. 1.11E-06 M, listed as des2.1.0_t1): 35066
- HDAC1 activity raw data (signal) (HDAC1; peptide conc. 1.11E-06 M, listed as des2.1.0_t2): 30452
- HDAC1 activity raw data (signal) (HDAC1; peptide conc. 1.23E-07 M, listed as des2.1.0_t1): 229823
- HDAC1 activity raw data (signal) (HDAC1; peptide conc. 1.23E-07 M, listed as des2.1.0_t2): 221730
- HDAC1 activity raw data (signal) (HDAC1; peptide conc. 1.37E-08 M, listed as des2.1.0_t1): 719453
- HDAC1 activity raw data (signal) (HDAC1; peptide conc. 1.37E-08 M, listed as des2.1.0_t2): 647364
- HDAC1 activity raw data (signal) (HDAC1; peptide conc. 1.52E-09 M, listed as des2.1.0_t1): 1054522
- HDAC1 activity raw data (signal) (HDAC1; peptide conc. 1.52E-09 M, listed as des2.1.0_t2): 936834
- HDAC1 activity raw data (signal) (HDAC1; peptide conc. 3.33E-06 M, listed as des2.1.0_t1): 10147
- HDAC1 activity raw data (signal) (HDAC1; peptide conc. 3.33E-06 M, listed as des2.1.0_t2): 8024
- HDAC1 activity raw data (signal) (HDAC1; peptide conc. 3.70E-07 M, listed as des2.1.0_t1): 106445
- HDAC1 activity raw data (signal) (HDAC1; peptide conc. 3.70E-07 M, listed as des2.1.0_t2): 96156
- HDAC1 activity raw data (signal) (HDAC1; peptide conc. 4.12E-08 M, listed as des2.1.0_t1): 447049
- HDAC1 activity raw data (signal) (HDAC1; peptide conc. 4.12E-08 M, listed as des2.1.0_t2): 424224
- HDAC1 activity raw data (signal) (HDAC1; peptide conc. 4.57E-09 M, listed as des2.1.0_t1): 905513
- HDAC1 activity raw data (signal) (HDAC1; peptide conc. 4.57E-09 M, listed as des2.1.0_t2): 862794
- HDAC1 activity raw data (signal) (HDAC1; peptide conc. 5.08E-10 M, listed as des2.1.0_t1): 1056262
- HDAC1 activity raw data (signal) (HDAC1; peptide conc. 5.08E-10 M, listed as des2.1.0_t2): 1080293

Source: article PMC8185074, “Anchor extension: a structure-guided approach to design cyclic peptides targeting enzyme active sites” (Nature Communications, 2021)
